Data from patent US12590066B2, “Fused-heterocyclyl-carbonohydrazonoyl dicyanide compounds and use thereof” (KOREA INSTITUTE OF SCIENCE AND TECHNOLOGY, priority 2020, dated 2026).

Columns and labels:
Tau-BiFC cells = test: Cell viability (stained nuclei count) in Tau-BiFC cells; format: cell-based; settings: 10 μM compound, 48 hours; Forskolin-only group = 100% cell viability
Method: In order to select novel tau protein aggregation-inhibiting substances, tau-BiFC cell model, in which formation of tau oligomers in living cells is easily observed, was used. Tau-BiFC cells were aliquoted into a 384-well plate. On the next day, the cells were treated with each of the compounds prepared according to Examples 1 to 57 at concentrations of 1 μM, 3 μM, and 10 μM, together with Forskolin (at a treatment concentration of 30 μM), which is a compound inducing tau protein aggregation by activating tau phosphorylase PKA. After 48 hours, nuclei in the cells were stained using Hoechst (at a treatment concentration of 2 μg/mL), and BiFC fluorescence intensity was automatically measured using Operetta (PerkinElmer) to count stained nuclei in each well out of the entire well plate. The group treated only with Forskolin, which induces tau protein aggregation, was set to a reference point of a 100% tau protein-aggregated state, and the effects of the compounds were confirmed using the equation “BiFC fluorescence intensity due to compound synthesized according to embodiment of present invention/(fluorescence intensity of control group treated only with Forskolin inducing tau protein aggregation−fluorescence intensity of untreated control group)×100”. Furthermore, the degree of cytotoxicity induced by the newly synthesized compound was also measured based on the 100% cell viability of the group treated only with Forskolin as a reference, and the cytotoxicity value of each compound was calculated using the equation “(number of stained nuclei in group treated with compound/number of stained nuclei in group treated with Forskolin)×100”. Based on the treatment results, substances inhibiting intracellular tau protein aggregation were selected from a series of candidate groups showing a tau protein aggregation inhibition rate of 70% or more and cell viability of 100% at a compound treatment concentration of 10 μM or more. […]

tau protein = biological target: T1, tau protein (Homo sapiens, UniProt P10636); test: Tau-BiFC cell model, inhibition of Forskolin-induced tau protein aggregation; format: cell-based; settings: Forskolin 30 μM, 48 hours; for Tau BiFC in cells Response (% @10 μM): 10 μM compound, Forskolin-only group = 100% tau protein-aggregated state; for IC50: tau-BiFC cells
T1 construct: BiFC fluorescent-protein fragments (type and halves not specified); expressed in transfected cells
Method: In order to select novel tau protein aggregation-inhibiting substances, tau-BiFC cell model, in which formation of tau oligomers in living cells is easily observed, was used. Tau-BiFC cells were aliquoted into a 384-well plate. On the next day, the cells were treated with each of the compounds prepared according to Examples 1 to 57 at concentrations of 1 μM, 3 μM, and 10 μM, together with Forskolin (at a treatment concentration of 30 μM), which is a compound inducing tau protein aggregation by activating tau phosphorylase PKA. After 48 hours, nuclei in the cells were stained using Hoechst (at a treatment concentration of 2 μg/mL), and BiFC fluorescence intensity was automatically measured using Operetta (PerkinElmer) to count stained nuclei in each well out of the entire well plate. The group treated only with Forskolin, which induces tau protein aggregation, was set to a reference point of a 100% tau protein-aggregated state, and the effects of the compounds were confirmed using the equation “BiFC fluorescence intensity due to compound synthesized according to embodiment of present invention/(fluorescence intensity of control group treated only with Forskolin inducing tau protein aggregation−fluorescence intensity of untreated control group)×100”. Furthermore, the degree of cytotoxicity induced by the newly synthesized compound was also measured based on the 100% cell viability of the group treated only with Forskolin as a reference, and the cytotoxicity value of each compound was calculated using the equation “(number of stained nuclei in group treated with compound/number of stained nuclei in group treated with Forskolin)×100”. Based on the treatment results, substances inhibiting intracellular tau protein aggregation were selected from a series of candidate groups showing a tau protein aggregation inhibition rate of 70% or more and cell viability of 100% at a compound treatment concentration of 10 μM or more.
In order to evaluate dose-dependent tau protein aggregation inhibition effects of the compounds selected according to Experimental Example 1 on tau protein aggregation, tau-BiFC cells were treated with the selected compounds at concentrations of 0.03 μM, […], 0.3 μM, 1 μM, 3 μM, 10 μM, and 30 μM, respectively, together with Forskolin (at a treatment concentration of 30 μM), which is a tau protein aggregation-inducing substance. After 48 hours, tau protein aggregation reaction and degrees of cytotoxicity were analyzed by observing images of the cells. IC50 and toxicity of the compounds were analyzed by way of nonlinear regression analysis of prism software (Graph Pad).

T1 sequence (P10636 1-441 isoform P10636-8): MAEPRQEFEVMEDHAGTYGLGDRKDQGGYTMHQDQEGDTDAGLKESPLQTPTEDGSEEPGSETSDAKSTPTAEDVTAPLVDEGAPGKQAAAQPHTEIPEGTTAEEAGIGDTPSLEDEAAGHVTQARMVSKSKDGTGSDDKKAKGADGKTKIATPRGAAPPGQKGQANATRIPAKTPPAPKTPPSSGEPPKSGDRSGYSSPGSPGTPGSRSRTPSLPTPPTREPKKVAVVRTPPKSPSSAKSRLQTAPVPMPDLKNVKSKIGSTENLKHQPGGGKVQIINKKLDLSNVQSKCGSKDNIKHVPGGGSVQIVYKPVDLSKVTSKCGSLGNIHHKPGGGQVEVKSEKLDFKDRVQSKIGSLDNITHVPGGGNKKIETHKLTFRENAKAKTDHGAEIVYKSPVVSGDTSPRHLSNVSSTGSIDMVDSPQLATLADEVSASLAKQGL

In the case of `Cn1c(=O)ccc2cc(NN=C(C#N)C#N)ccc21` [Compound 25, (1-methyl-2-oxo-1,2-dihydroquinolin-6-yl)carbonohydrazonoyl dicyanide], the “Cell viability (% @10 μM)” value (Tau-BiFC cells) is reported as 118%, the “Tau BiFC in cells Response (% @10 μM)” value (tau protein) is reported as −16% and the IC50 (tau protein) is reported as 20 nM.

For `CC(C)n1c(=O)n(C)c2cc(NN=C(C#N)C#N)cnc21` [Compound 54, (3-isopropyl-1-methyl-2-oxo-2,3-dihydro-1H-imidazo[4,5-b]pyridin-6-yl)carbonohydrazonoyl dicyanide], the “Cell viability (% @10 μM)” value (Tau-BiFC cells) was 118%, the “Tau BiFC in cells Response (% @10 μM)” value (tau protein) was −38% and the IC50 (tau protein) was 300 nM.

In the case of `COc1cc2c(cc1NN=C(C#N)C#N)n(C)c(=O)n2C` [Compound 32, (6-methoxy-1,3-dimethyl-2-oxo-2,3-dihydro-1H-benzo[d]imidazol-5-yl)carbonohydrazonoyl dicyanide], the “Cell viability (% @10 μM)” value (Tau-BiFC cells) is reported as 132% and the “Tau BiFC in cells Response (% @10 μM)” value (tau protein) is reported as 38%.

In the case of `Cn1c(=O)n(C2CC2)c2ccc(NN=C(C#N)C#N)cc21` [Compound 40, (1-cyclopropyl-3-methyl-2-oxo-2,3-dihydro-1H-benzo[d]imidazol-5-yl)carbonohydrazonoyl dicyanide], the “Cell viability (% @10 μM)” value (Tau-BiFC cells) is reported as 122%, the “Tau BiFC in cells Response (% @10 μM)” value (tau protein) is reported as −38% and the IC50 (tau protein) is reported as 30 nM.

In the case of `CCn1c(=O)n(C)c2ncc(NN=C(C#N)C#N)cc21` [Compound 44, (1-ethyl-3-methyl-2-oxo-2,3-dihydro-1H-imidazo[4,5-b]pyridin-6-yl)carbonohydrazonoyl dicyanide], the “Cell viability (% @10 μM)” value (Tau-BiFC cells) is reported as 138% and the “Tau BiFC in cells Response (% @10 μM)” value (tau protein) is reported as 10%.

`Cn1c(=O)n(C2CC2)c2ncc(NN=C(C#N)C#N)cc21` [Compound 51, (3-cyclopropyl-1-methyl-2-oxo-2,3-dihydro-1H-imidazo[4,5-b]pyridin-6-yl)carbonohydrazonoyl dicyanide] was tested, and the “Cell viability (% @10 μM)” value (Tau-BiFC cells) was 137%, the “Tau BiFC in cells Response (% @10 μM)” value (tau protein) was −11% and the IC50 (tau protein) was 660 nM.

`Cc1cc2c(cc1NN=C(C#N)C#N)n(C)c(=O)n2C` [Compound 31, (1,3,6-trimethyl-2-oxo-2,3-dihydro-1H-benzo[d]imidazol-5-yl)carbonohydrazonoyl dicyanide] was tested, and the “Cell viability (% @10 μM)” value (Tau-BiFC cells) was 119% and the “Tau BiFC in cells Response (% @10 μM)” value (tau protein) was 47%.

In the case of `CC(C)n1c(=O)n(C)c2ncc(NN=C(C#N)C#N)cc21` [Compound 45, (1-isopropyl-3-methyl-2-oxo-2,3-dihydro-1H-imidazo[4,5-b]pyridin-6-yl)carbonohydrazonoyl dicyanide], the “Cell viability (% @10 μM)” value (Tau-BiFC cells) is reported as 113%, the “Tau BiFC in cells Response (% @10 μM)” value (tau protein) is reported as −24% and the IC50 (tau protein) is reported as 200 nM.

`CCn1c(=O)n(C(F)F)c2cc(NN=C(C#N)C#N)cnc21` [Compound 50, (1-(difluoromethyl)-3-ethyl-2-oxo-2,3-dihydro-1H-imidazo[4,5-b]pyridin-6-yl)carbonohydrazonoyl dicyanide] was tested, and the “Cell viability (% @10 μM)” value (Tau-BiFC cells) was 119% and the “Tau BiFC in cells Response (% @10 μM)” value (tau protein) was 2%.

For `Cn1c(=O)n(C)c2cc(NN=C(C#N)C#N)c(F)cc21` [Compound 9, (6-fluoro-1,3-dimethyl-2-oxo-2,3-dihydro-1H-benzo[d]imidazol-5-yl)carbonohydrazonoyl dicyanide], the “Cell viability (% @10 μM)” value (Tau-BiFC cells) was 155.3%, the “Tau BiFC in cells Response (% @10 μM)” value (tau protein) was 0% and the IC50 (tau protein) was 170 nM.

In the case of `N#CC(C#N)=NNc1ccc2[nH]c(=O)ccc2c1` [Compound 8, (2-oxo-1,2-dihydroquinolin-6-yl)carbonohydrazonoyl dicyanide], the “Cell viability (% @10 μM)” value (Tau-BiFC cells) is reported as 152.5%, the “Tau BiFC in cells Response (% @10 μM)” value (tau protein) is reported as 0% and the IC50 (tau protein) is reported as 430 nM.

With `N#CC(C#N)=NNc1ccc2oc(=O)n(C(F)F)c2c1` [Compound 30, (3-(difluoromethyl)-2-oxo-2,3-dihydrobenzo[d]oxazol-5-yl)carbonohydrazonoyl dicyanide] the “Cell viability (% @10 μM)” value (Tau-BiFC cells) was 127% and the “Tau BiFC in cells Response (% @10 μM)” value (tau protein) was 36%.

In the case of `CCn1c(=O)n(C2CC2)c2ccc(NN=C(C#N)C#N)cc21` [Compound 41, (1-cyclopropyl-3-ethyl-2-oxo-2,3-dihydro-1H-benzo[d]imidazol-5-yl)carbonohydrazonoyl dicyanide], the “Cell viability (% @10 μM)” value (Tau-BiFC cells) is reported as 112%, the “Tau BiFC in cells Response (% @10 μM)” value (tau protein) is reported as −54% and the IC50 (tau protein) is reported as 20 nM.

In the case of `N#CC(C#N)=NNc1ccc2cc[nH]c(=O)c2c1` [Compound 1, (1-oxo-1,2-dihydroisoquinolin-7-yl)carbonohydrazonoyl dicyanide], the “Cell viability (% @10 μM)” value (Tau-BiFC cells) is reported as 152.9%, the “Tau BiFC in cells Response (% @10 μM)” value (tau protein) is reported as 0% and the IC50 (tau protein) is reported as 130 nM.

With `Cn1c(=O)n(-c2ccccc2)c2cc(NN=C(C#N)C#N)cnc21` [Compound 47, (3-methyl-2-oxo-1-phenyl-2,3-dihydro-1H-imidazo[4,5-b]pyridin-6-yl)carbonohydrazonoyl dicyanide] the “Cell viability (% @10 μM)” value (Tau-BiFC cells) was 117% and the “Tau BiFC in cells Response (% @10 μM)” value (tau protein) was 13%.

In the case of `Cn1c(=O)n(C(F)F)c2cc(NN=C(C#N)C#N)cnc21` [Compound 46, (1-(difluoromethyl)-3-methyl-2-oxo-2,3-dihydro-1H-imidazo[4,5-b]pyridin-6-yl)carbonohydrazonoyl dicyanide], the “Cell viability (% @10 μM)” value (Tau-BiFC cells) is reported as 131% and the “Tau BiFC in cells Response (% @10 μM)” value (tau protein) is reported as 23%.

For `CCn1c(=O)n(C2CC2)c2ncc(NN=C(C#N)C#N)cc21` [Compound 52, (3-cyclopropyl-1-ethyl-2-oxo-2,3-dihydro-1H-imidazo[4,5-b]pyridin-6-yl)carbonohydrazonoyl dicyanide], the “Cell viability (% @10 μM)” value (Tau-BiFC cells) was 133%, the “Tau BiFC in cells Response (% @10 μM)” value (tau protein) was −30% and the IC50 (tau protein) was 200 nM.

`Cc1cc(=O)[nH]c2ccc(NN=C(C#N)C#N)cc12` [Compound 26, (4-methyl-2-oxo-1,2-dihydroquinolin-6-yl)carbonohydrazonoyl dicyanide] was tested, and the “Cell viability (% @10 μM)” value (Tau-BiFC cells) was 120%, the “Tau BiFC in cells Response (% @10 μM)” value (tau protein) was −5% and the IC50 (tau protein) was 770 nM.

For `CCn1c(=O)n(C(C)C)c2cc(NN=C(C#N)C#N)cnc21` [Compound 49, (3-ethyl-1-isopropyl-2-oxo-2,3-dihydro-1H-imidazo[4,5-b]pyridin-6-yl)carbonohydrazonoyl dicyanide], the “Cell viability (% @10 μM)” value (Tau-BiFC cells) was 139%, the “Tau BiFC in cells Response (% @10 μM)” value (tau protein) was −34% and the IC50 (tau protein) was 50 nM.

With `CCn1c(=O)n(C(F)F)c2cc(NN=C(C#N)C#N)ccc21` [Compound 39, (3-(difluoromethyl)-1-ethyl-2-oxo-2,3-dihydro-1H-benzo[d]imidazol-5-yl)carbonohydrazonoyl dicyanide] the “Cell viability (% @10 μM)” value (Tau-BiFC cells) was 106%, the “Tau BiFC in cells Response (% @10 μM)” value (tau protein) was −45% and the IC50 (tau protein) was 10 nM.

`Cn1c(=O)oc2ccc(NN=C(C#N)C#N)cc21` [Compound 28, (3-methyl-2-oxo-2,3-dihydrobenzo[d]oxazol-5-yl)carbonohydrazonoyl dicyanide] was tested, and the “Cell viability (% @10 μM)” value (Tau-BiFC cells) was 134% and the “Tau BiFC in cells Response (% @10 μM)” value (tau protein) was 13%.
